Experimental data reported in US8304529B2, “Dinucleotide MRNA cap analogs” (Life Technologies Corporation, priority 2006, dated 2012).

Experiments:
[1] = tested on: HeLa cells; assay: Luciferase protein expression after transfection of capped luciferase RNA into HeLa cells; assay type: cell-based; details: for protein expression compared with mCAP: capped luciferase RNAs with poly(A) tail, different time points after transfection, higher than mCAP
Description: Structures were confirmed by ^1H NMR and ^31P NMR. Transcripts produced with T7 RNA polymerases using “anti-reverse” cap analogs (ARCAs) were of the predicted length and indistinguishable in size and homogeneity from those produced with m^7GpppG. Transfection assays were performed by using standard cap analog-capped and ARCA-capped luciferase in in vitro transcribed RNA with HeLa cells.

[2] = tested on: phage RNA polymerase such as T7, T3 or SP6; details: cited from earlier work

Structure (SMILES)	protein expression compared with mCAP [1]	attachment of cap to RNA in the reverse orientation ([2]; NTPs and cap RNA present in comparable concentrations)	capped RNA in transcription product ([2]; m7GpppG to GTP 4:1, mMESSAGE mMACHINE kit, rest 20% uncapped) [%]	translation of capped transcripts in transfected cells ([1]; compared with mCAP, double methylated and ARCA capped luciferase RNAs)
CO[C@H]1[C@@H](O)[C@H](n2c[n+](C)c3c(=O)[nH]c(N)nc32)O[C@@H]1COP(=O)(O)OP(=O)(O)OP(=O)(O)OC[C@H]1O[C@@H](n2cnc3c(=O)[nH]c(N)nc32)[C@H](O)[C@@H]1O [ARCA, m2^7,3′OG[5′]ppp[5′]G]	3 fold	–	–	–
C[n+]1cn([C@@H]2O[C@H](COP(=O)(O)OP(=O)(O)OP(=O)(O)OC[C@H]3O[C@@H](n4c[n+](C)c5c(=O)[nH]c(N)nc54)[C@H](O)[C@@H]3O)[C@@H](O)[C@H]2O)c2nc(N)[nH]c(=O)c21 [double methylated cap, m^7 (5′)Gppp(5′)m^7G]	one fold higher	–	–	–
Cn1c[n+]([C@@H]2O[C@H](COP(=O)(O)OP(=O)(O)OP(=O)(O)OC[C@H]3O[C@@H](n4cnc5c(=O)[nH]c(N)nc54)[C@H](O)[C@@H]3O)[C@@H](O)[C@H]2O)c2nc(N)[nH]c(=O)c21 [mCAP, m^7G(5′)ppp(5′)G]	–	around 50%	80	–
COC1C(COP(=O)([O-])OP(=O)(O)OP(=O)([O-])OCC2OC(n3c[n+](C)c4c(=O)[nH]c(N)nc43)C(O)C2O)OC(n2c[n+](C)c3c(=O)[nH]c(N)nc32)C1O (stereo not drawn) [triple methylated cap, m2^7,3′OG[5′]ppp[5′]m^7G]	4 fold	–	–	more highly translated
